From ChEMBL document CHEMBL1146617, “2-Aryl-3,6-dialkyl-5-dialkylaminopyrimidin-4-ones as novel crf-1 receptor antagonists” (Bioorg Med Chem Lett, 2003)

Experiment: in vitro
Details: human, microsomes

Compared with `CCCN(CCC)c1c(C)nc(-c2c(C)cc(C)cc2OC)n(C)c1=O`, `CCCN(CCC)c1c(C)nc(-c2c(C)cc(C)cc2C)n(C)c1=O` is 1.8-fold higher in half-life: 2.5 min for the first, 4.6 min for the second.

`CCCN(CCC)c1c(CC)nc(-c2c(C)cc(C)cc2OC)n(CC)c1=O` and `CCCN(CCC)c1c(C)nc(-c2c(C)cc(C)cc2OC)n(CCC)c1=O` are within 1.5-fold of each other in half-life: 2.3 min for the first, 3 min for the second.

First: CCCN(CCC)c1c(C)nc(-c2c(OC)cccc2OC(F)F)n(CC)c1=O
Second: CCCN(CCC)c1c(C)nc(-c2c(OC)cccc2OC(F)F)nc1O
The half-life of the first is 12-fold lower: 1.8 min for the first, 21.6 min for the second.

`CCCN(CCC)c1c(C)nc(-c2c(C)cc(C)cc2OC)n(CC(F)(F)F)c1=O` and `CCCN(CCC)c1c(C)nc(-c2c(C)cc(C)cc2OC)n(CCF)c1=O` are within 1.5-fold of each other in half-life: 3.4 min for the first, 3 min for the second.

`CCCN(CCC)c1c(C)nc(-c2c(C)cc(C)cc2C)n(CCN2CCCC2)c1=O` and `CCCN(CCC)c1c(C)nc(-c2c(C)cc(C)cc2C)n(CC)c1=O` are within 1.5-fold of each other in half-life: 4.2 min for the first, 3.6 min for the second.

Going from `CCCN(CCC)c1c(C)nc(-c2ccc(OC)cc2OC)n(CCC)c1=O` to `CCCN(CCC)c1c(C)nc(-c2ccc(OC)cc2OC)n(CCOC)c1=O`, the half-life falls from 2.3 min to 1.3 min (1.8-fold).

Going from `CCCN(CCC)c1c(CC)nc(-c2c(C)cc(C)cc2OC)[nH]c1=O` to `CCCN(CCC)c1c(C)nc(-c2c(C)cc(C)cc2OC)n(C(C)C)c1=O`, the half-life falls from 8.1 min to 2.1 min (3.9-fold).

Compared with `CCCN(CCC)c1c(C)nc(-c2c(C)cc(C)cc2OC)nc1O`, `CCCN(CCC)c1c(C)nc(-c2c(C)cc(C)cc2C)nc1O` is 2.1-fold lower in half-life: 15.5 min for the first, 7.5 min for the second.

`CCCN(CCC)c1c(C)nc(-c2ccc(OC)cc2OC)nc1O` and `CCCN(CCC)c1c(C)nc(-c2c(OC)cccc2OC)nc1O` are within 1.5-fold of each other in half-life: 9.4 min for the first, 13.3 min for the second.

`CCCN(CCC)c1c(C)nc(-c2ccc(Cl)cc2Cl)n(CC)c1=O` and `CCCN(CCC)c1c(C)nc(-c2ccc(OC)cc2OC)n(CC2CC2)c1=O` are within 1.5-fold of each other in half-life: 1.9 min for the first, 1.5 min for the second.
